In patent publication US20020137929A1, “1 - (3-heterocyclylphenyl) isothiourea, -isourea, -guanidine and -amidine herbicidal agents” (Intellectual Property Department, BASF Aktiengesellschaft, priority 1998, published 2002):

How the values were obtained:
[1] = test system: SAGPY (Arrowhead (Pygmaea)); assay: Preemergence weed control under flooded paddy conditions; type: in vivo, Sagittaria pygmaea; conditions: rated 3-4 weeks after treatment
In short: (§1)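 Flooded-pot preemergence screen with silt loam and seeds in the upper 0.5 cm. Dose about 0.0313 to 0.500 kg/ha, delivered into flood water; visual 0-9 score after 3 to 4 weeks.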

[2] = test system: IPOHE (Morningglory, Ivyleaf); assay: Postemergence herbicidal evaluation; type: in vivo, Ipomoea hederacea; conditions: postemergence
In short: (§2)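 ~2-wk seedlings; postemergence spray, 40 psi; vehicle 1:1 acetone:water + 0.5% Tween 20; rate ≈0.0156–0.500 kg/ha; greenhouse hold; scored 4–5 wk after treatment, 0–9 scale vs control; repeat tests averaged.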

[3] = test system: ZEAMX (Corn, Field); assay: Postemergence herbicidal evaluation; type: in vivo, Zea mays; conditions: postemergence
In short: as §2

[4] = test system: GLXMAW (Soybean, Williams); assay: Preemergence herbicidal evaluation; type: in vivo, Glycine max, (L.) Merr. cv Williams; conditions: rated 4-5 weeks after treatment
In short: (§3)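 Test compound, dissolved in aqueous acetone, was sprayed over planted soil cups at an equivalent of about 0.0156 to 0.500 kg/ha; seeds had been mixed with potting soil. Greenhouse growth followed, with visual 0-9 scoring of injury at four to five weeks.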

[5] = test system: ABUTH (Velvetleaf); assay: Preemergence herbicidal evaluation; type: in vivo, Abutilon theophrasti; conditions: rated 4-5 weeks after treatment
In short: as §3

[6] = test system: GALAP (Galium); assay: Preemergence herbicidal evaluation; type: in vivo, Galium aparine; conditions: rated 4-5 weeks after treatment
In short: as §3

[7] = test system: AMBEL (Ragweed, Common); assay: Preemergence herbicidal evaluation; type: in vivo, Ambrosia artemisifolia; conditions: rated 4-5 weeks after treatment
In short: as §3

[8] = test system: SETVI (Foxtail, Green); assay: Preemergence herbicidal evaluation; type: in vivo, Setaria viridis; conditions: rated 4-5 weeks after treatment
In short: as §3

[9] = test system: GLXMAW (Soybean, Williams); assay: Postemergence herbicidal evaluation; type: in vivo, Glycine max, (L.) Merr. cv Williams; conditions: postemergence
In short: as §2

[10] = test system: ECHORC (Watergrass (Calif.)); assay: Postemergence weed control under flooded paddy conditions; type: in vivo, Echinochloa oryzoides; conditions: postemergence weeds, rated 3 to 4 weeks after treatment
In short: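 Herbicidal effect is judged by eye on a 0–9 scale versus control, 3–4 weeks after dosing. Dosing is into flood water kept 1.5–3 cm over the soil, at about 0.0313–0.500 kg/ha in aqueous/acetone 50/50 v/v, on 3–5 cm weeds and 1.5–2.5-leaf rice seedlings.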

[11] = test system: ECHCG (Barnyardgrass); assay: Preemergence herbicidal evaluation; type: in vivo, Echinochloa crus-galli; conditions: rated 4-5 weeks after treatment
In short: as §3

[12] = test system: CASOB (Sicklepod); assay: Preemergence herbicidal evaluation; type: in vivo, Cassia obtusifolia; conditions: rated 4-5 weeks after treatment
In short: as §3

[13] = test system: AMBEL (Ragweed, Common); assay: Postemergence herbicidal evaluation; type: in vivo, Ambrosia artemisifolia; conditions: postemergence
In short: as §2

[14] = test system: CYPSE (Flatsedge); assay: Preemergence weed control under flooded paddy conditions; type: in vivo, Cyperus serotinus; conditions: rated 3-4 weeks after treatment
In short: as §1

Cn1c(C(F)(F)F)cc(=O)n(-c2cc(N=C3SCC(=O)N3C3CCOC3=O)c(Cl)cc2F)c1=O (stereo not shown) [Compound 73]
5.5: GLXMAW herbicidal rating ([9]; rate 0.0315 kg/ha)
6.0: GLXMAW herbicidal rating ([9]; rate 0.0158 kg/ha)
3.0: SAGPY herbicidal effect rating ([1]; 0.1250 kg/ha) | Herbicidal rating ECHORC ([10]; Rate 0.1250 kg/ha)
5.0: ZEAMX herbicidal rating ([3]; rate 0.0630 kg/ha)
4.0: SAGPY herbicidal effect rating ([1]; 0.2500 kg/ha) | Preemergence herbicidal rating GALAP ([6]; rate 0.1250 kg/ha) | Preemergence herbicidal rating AMBEL ([7]; rate 0.0625 kg/ha) | Preemergence herbicidal rating ECHCG ([11]; rate 0.2500 kg/ha) | CYPSE herbicidal effect rating ([14]; 0.2500 kg/ha)
9.0: IPOHE herbicidal rating ([2]; rate 0.0158 kg/ha) | IPOHE herbicidal rating ([2]; rate 0.0315 kg/ha) | IPOHE herbicidal rating ([2]; rate 0.0630 kg/ha) | Preemergence herbicidal rating GLXMAW ([4]; rate 0.2500 kg/ha) | Preemergence herbicidal rating ABUTH ([5]; rate 0.0156 kg/ha) | Preemergence herbicidal rating ABUTH ([5]; rate 0.0313 kg/ha) | Preemergence herbicidal rating ABUTH ([5]; rate 0.0625 kg/ha) | Preemergence herbicidal rating ABUTH ([5]; rate 0.1250 kg/ha) | Preemergence herbicidal rating ABUTH ([5]; rate 0.2500 kg/ha) | Preemergence herbicidal rating GALAP ([6]; rate 0.2500 kg/ha) | Preemergence herbicidal rating AMBEL ([7]; rate 0.1250 kg/ha) | Preemergence herbicidal rating AMBEL ([7]; rate 0.2500 kg/ha) | Preemergence herbicidal rating SETVI ([8]; rate 0.1250 kg/ha) | Preemergence herbicidal rating SETVI ([8]; rate 0.2500 kg/ha) | AMBEL herbicidal rating ([13]; rate 0.0158 kg/ha) | AMBEL herbicidal rating ([13]; rate 0.0315 kg/ha) | AMBEL herbicidal rating ([13]; rate 0.0630 kg/ha)
4.5: ZEAMX herbicidal rating ([3]; rate 0.0158 kg/ha) | ZEAMX herbicidal rating ([3]; rate 0.0315 kg/ha)
2.0: Preemergence herbicidal rating CASOB ([12]; rate 0.2500 kg/ha) | CYPSE herbicidal effect rating ([14]; 0.1250 kg/ha)
0.0: Preemergence herbicidal rating GLXMAW ([4]; rate 0.0156 kg/ha) | Preemergence herbicidal rating GALAP ([6]; rate 0.0156 kg/ha) | Preemergence herbicidal rating GALAP ([6]; rate 0.0313 kg/ha) | Preemergence herbicidal rating GALAP ([6]; rate 0.0625 kg/ha) | Preemergence herbicidal rating AMBEL ([7]; rate 0.0313 kg/ha) | Preemergence herbicidal rating SETVI ([8]; rate 0.0156 kg/ha) | Preemergence herbicidal rating SETVI ([8]; rate 0.0625 kg/ha) | Preemergence herbicidal rating ECHCG ([11]; rate 0.0156 kg/ha) | Preemergence herbicidal rating ECHCG ([11]; rate 0.0313 kg/ha) | Preemergence herbicidal rating ECHCG ([11]; rate 0.0625 kg/ha) | Preemergence herbicidal rating ECHCG ([11]; rate 0.1250 kg/ha) | Preemergence herbicidal rating CASOB ([12]; rate 0.0313 kg/ha) | Preemergence herbicidal rating CASOB ([12]; rate 0.0625 kg/ha)
7.0: Herbicidal rating ECHORC ([10]; Rate 0.2500 kg/ha)
1.0: Preemergence herbicidal rating GLXMAW ([4]; rate 0.0313 kg/ha) | Preemergence herbicidal rating GLXMAW ([4]; rate 0.0625 kg/ha) | Preemergence herbicidal rating GLXMAW ([4]; rate 0.1250 kg/ha) | Preemergence herbicidal rating AMBEL ([7]; rate 0.0156 kg/ha) | Preemergence herbicidal rating SETVI ([8]; rate 0.0313 kg/ha) | Preemergence herbicidal rating CASOB ([12]; rate 0.1250 kg/ha)
7.5: GLXMAW herbicidal rating ([9]; rate 0.0630 kg/ha)
